In US9260759B2, “Pyrazoloanthrone and derivatives thereof for the treatment of cancers expressing MISRII” (The General Hospital Corporation, priority 2007, dated 2016):

How the values were obtained:
Format in all cases: cell-based
[1] = target: T1, rat MISRII (Rattus norvegicus, UniProt Q62893); test: BRE-luciferase reporter assay in COS7 cells transfected with MISRII; details: for BRE-luciferase induction, MIS plus SP600125: COS7, 24 h
T1 construct: expressed in transfected cells; host or cells: COS7
T1 sequence (Q62893 18-557): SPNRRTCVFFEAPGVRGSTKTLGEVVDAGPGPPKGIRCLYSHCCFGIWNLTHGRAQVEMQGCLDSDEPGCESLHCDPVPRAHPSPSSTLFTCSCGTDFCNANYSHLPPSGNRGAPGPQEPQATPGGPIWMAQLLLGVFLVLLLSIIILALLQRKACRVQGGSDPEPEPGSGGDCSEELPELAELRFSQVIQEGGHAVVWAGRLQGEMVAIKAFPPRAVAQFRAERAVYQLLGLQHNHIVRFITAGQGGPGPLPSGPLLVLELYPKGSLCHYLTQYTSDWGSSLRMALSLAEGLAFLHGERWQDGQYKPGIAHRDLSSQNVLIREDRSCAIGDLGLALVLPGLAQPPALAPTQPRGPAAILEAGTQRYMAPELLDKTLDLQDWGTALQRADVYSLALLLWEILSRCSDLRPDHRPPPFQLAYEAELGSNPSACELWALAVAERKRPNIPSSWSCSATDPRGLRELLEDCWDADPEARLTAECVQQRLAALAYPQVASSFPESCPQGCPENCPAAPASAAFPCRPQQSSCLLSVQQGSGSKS
Description: (§1) COS7 cells were transiently transfected with MISRH, BRE-Luciferase and phRL-CMV. […] Control cells were transfected with a control plasmid (EGFP-N1 plasmid) instead of the receptor plasmid to keep the total DNA transfected constant. The results shown are the fold-induction over vehicle treated cells and normalized to phRL-CMV expression to correct for variations in cell number and transfection efficiency. […] The results represent the mean values from three independent experiments performed in triplicates (Error bars represent SEM, *p<0.05, **p<0.001).
To identify molecules that interact with the MISRII, we developed a reporter assay where binding to MISRII activates a firefly luciferase reporter driven by the BMP-responsive element (BRE) promoter kindly provided by Dr. Peter ten Dijke (The Netherlands Cancer Institute, The Netherlands) The BMP promoter region on mouse M. mus is located on chromosome 2 (Chr2) and corresponds to RefSeq No: NT—039207.6 93504644-93506272 (SEQ ID NO:1). The BRE-luciferase reporter (Korchynskyi and ten Dijke, 2002, Logeart-Avramoglou, 2006) has multiple optimized BMP response elements (3 SBE, 7 GC, and 4 CAGC) driving the expression of the firefly luciferase. This reporter construct together with a control Renilla luciferase reporter phRL-CMV (Promega, Madison Wis.) and a rat MISRII cDNA expression construct (Teixeira, 1996) were transiently transfected into COST cells and plated in 384 well plates. Primary screens were performed at the Harvard Institute of Chemistry and Cell Biology screening facility. Compounds from chosen libraries were added at a volume of 100 nl at 5 mg/ml concentration in DMSO into 30 μl cell media and cultured for 24 h at 37° C., after which the luciferase activity was measured with reagents from Promega according to the manufacturer's instructions. A hit was identified as causing a fold induction over the plate median and each compound was tested in duplicate in separate plates. MIS was used to control for intra- and inter-assay variability.
(§2) COS7 cells were plated at a density of 5000 cells/well in 96-well plates for secondary screens. The day after plating cells were transfected with rat MISRII receptor or EGFP-N1 (Clontech, Mountain View Calif.) together with BRE firefly luciferase reporter construct and phRL-CMV using TransIT-LT1 transfection reagent (Mirus Bio Corporation, Madison Wis.). […] Results were obtained using the Dual Luciferase reporter assay according to the manufacturer's instructions (Promega). Plates were read in a Wallac Victor2 luminometer (PerkinElmer, Wellesley Mass.).

[2] = system: COS7 cells; test: BRE-luciferase reporter assay in COS7 cells transfected with control plasmid (EGFP-N1) instead of MISRII; details: increasing doses, 24 h
Description: as §1, §2

[3] = system: COS7 cells; test: MTT proliferation assay, untransfected COS7 cells (negative control); details: Chlorocebus aethiops, COS-7, 168 h, 7 days, read-out: IC50, inhibition of cell proliferation
Procedure: Cells were plated in 96-well plates and treated the day after. Seven days after plating the cell survival was measured using 3-(4,5-dimethylthiazol-2-yl)-2,5-diphenyltetrazolium bromide substrate and measuring the absorbance at 550 nm.
(§3) (Connolly, 2003). The 4306 cells were provided by Dr. Daniela Dinulescu, Brigham and Women's (Boston) (30). Cells were plated at a density of 1000 cells/well in 96-well plates and treated 24 h later. The cell proliferation was measured after 7 days by registering the absorbance at 550 nm. Paclitaxel was manufactured by Ivax Pharmaceuticals and obtained from the MGH pharmacy.
The cells were treated for 7 days and the proliferation was measured by spectrophotometry. To exclude cytotoxic effects on the cells unrelated to MIS signal transduction, we used untransfected COS7 cells as a negative control. […] Paclitaxel is used in treatment of a wide range of tumors, but the side effects can be debilitating (Pieretti-Vanmarcke, 2006a, Pieretti-Vanmarcke, 2006b).

[4] = system: 4306 cells; test: MTT proliferation assay, 4306 cells; details: Mus musculus
Procedure: Cells were plated in 96-well plates and treated the day after. Seven days after plating the cell survival was measured using 3-(4,5-dimethylthiazol-2-yl)-2,5-diphenyltetrazolium bromide substrate and measuring the absorbance at 550 nm. […] The results shown are the mean values from three independent experiments. (Error bars represent SEM, ***p<0.001). […] Significant differences (P<0.05) in FIG. 4C were determined by one-way factorial ANOVA.
as §3

[5] = 5 uM SP600125 with 0.5 ug/ml MIS

O=C1c2ccccc2-c2n[nH]c3cccc1c23 [SP600125, anthra[1,9-cd]pyrazol-6(2H)-one]
additional induction over MIS alone [1, 5]: six-fold | BRE-luciferase induction, MIS plus SP600125 [1, 5]: approximately 16 fold | time course of luciferase activity, cotreatment over each treatment alone ([1]; 10 uM SP600125 and 0.5 ug/ml MIS, after 6 h through 48 h): maintain their synergistic effect | BRE-luciferase induction, MIS plus SP600125 ([1]; 10 uM SP600125 with 0.5 ug/ml MIS): 22 fold | BRE-luciferase induction, MIS plus SP600125 ([1]; 25 uM SP600125 with 0.5 ug/ml MIS): 25 fold | interaction of MIS and SP600125 on activation of BRE-luciferase (two-way ANOVA) ([1]; combined compared with either alone, COS7): synergistic effect | induction of luciferase activity without MISRII [2]: Only cells transfected with MISRII showed a significant induction | IC50 [3]: 9.5 µM | inhibition at 2 µM [4]: 50%
